Reference: ChEMBL document CHEMBL1275557, “First countrywide survey of acquired metallo-beta-lactamases in gram-negative pathogens in Italy” (2008)

Tests used:
Assay type in all cases: functional
Pseudomonas aeruginosa [1] = experiment: Antibacterial activity against VIM-2 producing Pseudomonas aeruginosa clone B2 isolate VA-06X-38 by Etest method
Pseudomonas aeruginosa [2] = experiment: Antibacterial activity against VIM-1 producing Pseudomonas aeruginosa clone D1 isolate VA-06X-63 by Etest method
Pseudomonas aeruginosa [3] = experiment: Antibacterial activity against VIM-1 producing Pseudomonas aeruginosa clone A2 isolate NA-14X-21 by Etest method
Pseudomonas aeruginosa [4] = experiment: Antibacterial activity against VIM-1 producing Pseudomonas aeruginosa clone A1 isolate FG-17X-14 by Etest method
Pseudomonas aeruginosa [5] = experiment: Antibacterial activity against VIM-1 producing Pseudomonas aeruginosa clone A2 isolate NA-14X-26 by Etest method
Pseudomonas aeruginosa [6] = experiment: Antibacterial activity against VIM-2 producing Pseudomonas aeruginosa clone B3 isolate CR-04X-14 by Etest method
Pseudomonas putida [7] = experiment: Antibacterial activity against VIM-1 producing Pseudomonas putida isolate RM-11X-11 by Etest method in presence of Tazobactam
Pseudomonas aeruginosa [8] = experiment: Antibacterial activity against IMP-13 producing Pseudomonas aeruginosa clone C2 isolate NA-14X-10 by Etest method
Pseudomonas aeruginosa [9] = experiment: Antibacterial activity against VIM-1 producing Pseudomonas aeruginosa clone A2 isolate NA-14X-21 by Etest method in presence of Tazobactam
Pseudomonas aeruginosa [10] = experiment: Antibacterial activity against VIM-1 producing Pseudomonas aeruginosa clone D2 isolate VA-06X-16 by Etest method in presence of Tazobactam
Pseudomonas aeruginosa [11] = experiment: Antibacterial activity against VIM-1 producing Pseudomonas aeruginosa clone D2 isolate VA-06X-16 by Etest method
Pseudomonas aeruginosa [12] = experiment: Antibacterial activity against metallo-beta-lactamase positive Pseudomonas aeruginosa assessed as percent susceptible isolates by Etest method in presence of Tazobactam
Pseudomonas aeruginosa [13] = experiment: Antibacterial activity against VIM-1 producing Pseudomonas aeruginosa clone D2 isolate VA-06X-17 by Etest method
Pseudomonas aeruginosa [14] = experiment: Antibacterial activity against VIM-1 producing Pseudomonas aeruginosa clone D isolate VA-06X-69 by Etest method
Pseudomonas aeruginosa [15] = experiment: Antibacterial activity against VIM-2 producing Pseudomonas aeruginosa clone B3 isolate PV-05X-02 by Etest method
Pseudomonas aeruginosa [16] = experiment: Antibacterial activity against IMP-13 producing Pseudomonas aeruginosa clone C3 isolate PG-12X-03 by Etest method
Pseudomonas aeruginosa [17] = experiment: Antibacterial activity against VIM-1 producing Pseudomonas aeruginosa clone F isolate RM-11X-09 by Etest method
Pseudomonas aeruginosa [18] = experiment: Antibacterial activity against IMP-13 producing Pseudomonas aeruginosa clone C2 isolate NA-14X-12 by Etest method
Pseudomonas aeruginosa [19] = experiment: Antibacterial activity against VIM-2 producing Pseudomonas aeruginosa clone B3 isolate PV-05X-07 by Etest method in presence of Tazobactam
Pseudomonas aeruginosa [20] = experiment: Antibacterial activity against VIM-1 producing Pseudomonas aeruginosa clone D4 isolate VA-06X-47 by Etest method
Pseudomonas aeruginosa [21] = experiment: Antibacterial activity against VIM-2 producing Pseudomonas aeruginosa clone B2 isolate VA-06X-28 by Etest method
Pseudomonas aeruginosa [22] = experiment: Antibacterial activity against IMP-13 producing Pseudomonas aeruginosa clone C1 isolate AV-13X-28 by Etest method
Pseudomonas aeruginosa [23] = experiment: Antibacterial activity against VIM-1 producing Pseudomonas aeruginosa clone F isolate RM-11X-09 by Etest method in presence of Tazobactam
Pseudomonas aeruginosa [24] = experiment: Antibacterial activity against VIM-1 producing Pseudomonas aeruginosa clone E isolate VA-06X-29 by Etest method
Pseudomonas aeruginosa [25] = experiment: Antibacterial activity against VIM-1 producing Pseudomonas aeruginosa clone A3 isolate FG-17X-08 by Etest method in presence of Tazobactam
Pseudomonas aeruginosa [26] = experiment: Antibacterial activity against IMP-13 producing Pseudomonas aeruginosa clone C2 isolate NA-14X-11 by Etest method in presence of Tazobactam
Pseudomonas aeruginosa [27] = experiment: Antibacterial activity against VIM-1 producing Pseudomonas aeruginosa clone D3 isolate VA-06X-65 by Etest method in presence of Tazobactam
Pseudomonas aeruginosa [28] = experiment: Antibacterial activity against VIM-2 producing Pseudomonas aeruginosa clone B2 isolate VA-06X-28 by Etest method in presence of Tazobactam
Pseudomonas aeruginosa [29] = experiment: Antibacterial activity against VIM-1 producing Pseudomonas aeruginosa clone D isolate VA-06X-69 by Etest method in presence of Tazobactam
Pseudomonas aeruginosa [30] = experiment: Antibacterial activity against VIM-2 producing Pseudomonas aeruginosa clone B1 isolate SS-09X-45 by Etest method
Pseudomonas aeruginosa [31] = experiment: Antibacterial activity against VIM-2 producing Pseudomonas aeruginosa clone B3 isolate PV-05X-07 by Etest method
Pseudomonas aeruginosa [32] = experiment: Antibacterial activity against IMP-13 producing Pseudomonas aeruginosa clone C2 isolate NA-14X-02 by Etest method
Pseudomonas aeruginosa [33] = experiment: Antibacterial activity against VIM-2 producing Pseudomonas aeruginosa clone B3 isolate CR-04X-14 by Etest method in presence of Tazobactam
Pseudomonas aeruginosa [34] = experiment: Antibacterial activity against IMP-13 producing Pseudomonas aeruginosa clone C2 isolate NA-14X-10 by Etest method in presence of Tazobactam
Enterobacter cloacae [35] = experiment: Antibacterial activity against VIM-1 producing Enterobacter cloacae isolate TO-16X-51 by Etest method in presence of Tazobactam
Enterobacter cloacae [36] = experiment: Antibacterial activity against VIM-1 producing Enterobacter cloacae isolate TO-16X-51 by Etest method
Pseudomonas aeruginosa [37] = experiment: Antibacterial activity against VIM-1 producing Pseudomonas aeruginosa clone D4 isolate VA-06X-47 by Etest method in presence of Tazobactam
Pseudomonas aeruginosa [38] = experiment: Antibacterial activity against IMP-13 producing Pseudomonas aeruginosa clone C2 isolate NA-14X-02 by Etest method in presence of Tazobactam
Pseudomonas aeruginosa [39] = experiment: Antibacterial activity against VIM-2 producing Pseudomonas aeruginosa clone B3 isolate PV-05X-02 by Etest method in presence of Tazobactam
Pseudomonas aeruginosa [40] = experiment: Antibacterial activity against VIM-2 producing Pseudomonas aeruginosa clone B1 isolate SS-09X-45 by Etest method in presence of Tazobactam
Pseudomonas aeruginosa [41] = experiment: Antibacterial activity against VIM-1 producing Pseudomonas aeruginosa clone A3 isolate NA-14X-34 by Etest method in presence of Tazobactam
Pseudomonas aeruginosa [42] = experiment: Antibacterial activity against VIM-1 producing Pseudomonas aeruginosa clone D1 isolate VA-06X-63 by Etest method in presence of Tazobactam
Pseudomonas aeruginosa [43] = experiment: Antibacterial activity against VIM-1 producing Pseudomonas aeruginosa clone A1 isolate FG-17X-14 by Etest method in presence of Tazobactam
Pseudomonas aeruginosa [44] = experiment: Antibacterial activity against VIM-1 producing Pseudomonas aeruginosa clone E isolate VA-06X-29 by Etest method in presence of Tazobactam
Pseudomonas aeruginosa [45] = experiment: Antibacterial activity against IMP-13 producing Pseudomonas aeruginosa clone C2 isolate NA-14X-12 by Etest method in presence of Tazobactam
Pseudomonas aeruginosa [46] = experiment: Antibacterial activity against VIM-1 producing Pseudomonas aeruginosa clone D2 isolate VA-06X-17 by Etest method in presence of Tazobactam
Pseudomonas aeruginosa [47] = experiment: Antibacterial activity against VIM-1 producing Pseudomonas aeruginosa clone A2 isolate NA-14X-32 by Etest method
Pseudomonas aeruginosa [48] = experiment: Antibacterial activity against VIM-2 producing Pseudomonas aeruginosa clone B2 isolate VA-06X-20 by Etest method
Pseudomonas aeruginosa [49] = experiment: Antibacterial activity against IMP-13 producing Pseudomonas aeruginosa clone C1 isolate AV-13X-28 by Etest method in presence of Tazobactam
Pseudomonas aeruginosa [50] = experiment: Antibacterial activity against VIM-1 producing Pseudomonas aeruginosa clone A3 isolate FG-17X-08 by Etest method
Pseudomonas aeruginosa [51] = experiment: Antibacterial activity against VIM-1 producing Pseudomonas aeruginosa clone G isolate NA-14X-13 by Etest method in presence of Tazobactam
Pseudomonas aeruginosa [52] = experiment: Antibacterial activity against VIM-2 producing Pseudomonas aeruginosa clone B2 isolate VA-06X-20 by Etest method in presence of Tazobactam
Pseudomonas aeruginosa [53] = experiment: Antibacterial activity against VIM-1 producing Pseudomonas aeruginosa clone A2 isolate NA-14X-32 by Etest method in presence of Tazobactam
Pseudomonas aeruginosa [54] = experiment: Antibacterial activity against IMP-13 producing Pseudomonas aeruginosa clone C3 isolate PG-12X-03 by Etest method in presence of Tazobactam
Pseudomonas aeruginosa [55] = experiment: Antibacterial activity against VIM-2 producing Pseudomonas aeruginosa clone B2 isolate VA-06X-38 by Etest method in presence of Tazobactam
Pseudomonas aeruginosa [56] = experiment: Antibacterial activity against VIM-1 producing Pseudomonas aeruginosa clone A3 isolate NA-14X-34 by Etest method
Pseudomonas aeruginosa [57] = experiment: Antibacterial activity against VIM-1 producing Pseudomonas aeruginosa clone A2 isolate NA-14X-26 by Etest method in presence of Tazobactam
Pseudomonas aeruginosa [58] = experiment: Antibacterial activity against IMP-13 producing Pseudomonas aeruginosa clone C2 isolate NA-14X-11 by Etest method
Pseudomonas aeruginosa [59] = experiment: Antibacterial activity against VIM-1 producing Pseudomonas aeruginosa clone G isolate NA-14X-13 by Etest method
Pseudomonas putida [60] = experiment: Antibacterial activity against VIM-1 producing Pseudomonas putida isolate RM-11X-11 by Etest method
Pseudomonas aeruginosa [61] = experiment: Antibacterial activity against VIM-1 producing Pseudomonas aeruginosa clone D3 isolate VA-06X-65 by Etest method

CCN1CCN(C(=O)N[C@@H](C(=O)N[C@@H]2C(=O)N3[C@@H]2SC(C)(C)[C@@H]3C(=O)O)c2ccccc2)C(=O)C1=O [PIPERACILLIN]
32 µg/mL: MIC (Pseudomonas aeruginosa [1]) | MIC (Pseudomonas aeruginosa [19]) | MIC (Pseudomonas aeruginosa [39]) | MIC (Pseudomonas aeruginosa [55])
39%: Activity (Pseudomonas aeruginosa [12])
48 µg/mL: MIC (Pseudomonas aeruginosa [15]) | MIC (Pseudomonas aeruginosa [28]) | MIC (Pseudomonas aeruginosa [31]) | MIC (Pseudomonas aeruginosa [52])
> 128 µg/mL: MIC (Pseudomonas aeruginosa [2]) | MIC (Pseudomonas aeruginosa [3]) | MIC (Pseudomonas aeruginosa [4]) | MIC (Pseudomonas aeruginosa [5]) | MIC (Pseudomonas aeruginosa [6]) | MIC (Pseudomonas putida [7]) | MIC (Pseudomonas aeruginosa [9]) | MIC (Pseudomonas aeruginosa [10]) | MIC (Pseudomonas aeruginosa [11]) | MIC (Pseudomonas aeruginosa [13]) | MIC (Pseudomonas aeruginosa [14]) | MIC (Pseudomonas aeruginosa [17]) | MIC (Pseudomonas aeruginosa [20]) | MIC (Pseudomonas aeruginosa [23]) | MIC (Pseudomonas aeruginosa [24]) | MIC (Pseudomonas aeruginosa [25]) | MIC (Pseudomonas aeruginosa [27]) | MIC (Pseudomonas aeruginosa [29]) | MIC (Pseudomonas aeruginosa [30]) | MIC (Pseudomonas aeruginosa [33]) | MIC (Enterobacter cloacae [35]) | MIC (Enterobacter cloacae [36]) | MIC (Pseudomonas aeruginosa [37]) | MIC (Pseudomonas aeruginosa [40]) | MIC (Pseudomonas aeruginosa [41]) | MIC (Pseudomonas aeruginosa [42]) | MIC (Pseudomonas aeruginosa [43]) | MIC (Pseudomonas aeruginosa [44]) | MIC (Pseudomonas aeruginosa [46]) | MIC (Pseudomonas aeruginosa [47]) | MIC (Pseudomonas aeruginosa [50]) | MIC (Pseudomonas aeruginosa [51]) | MIC (Pseudomonas aeruginosa [53]) | MIC (Pseudomonas aeruginosa [56]) | MIC (Pseudomonas aeruginosa [57]) | MIC (Pseudomonas aeruginosa [59]) | MIC (Pseudomonas putida [60]) | MIC (Pseudomonas aeruginosa [61])
16 µg/mL: MIC (Pseudomonas aeruginosa [8]) | MIC (Pseudomonas aeruginosa [16]) | MIC (Pseudomonas aeruginosa [18]) | MIC (Pseudomonas aeruginosa [26]) | MIC (Pseudomonas aeruginosa [34]) | MIC (Pseudomonas aeruginosa [38]) | MIC (Pseudomonas aeruginosa [45]) | MIC (Pseudomonas aeruginosa [49]) | MIC (Pseudomonas aeruginosa [54]) | MIC (Pseudomonas aeruginosa [58])
24 µg/mL: MIC (Pseudomonas aeruginosa [22]) | MIC (Pseudomonas aeruginosa [32])
64 µg/mL: MIC (Pseudomonas aeruginosa [21]) | MIC (Pseudomonas aeruginosa [48])
